Test results published in ChEMBL document CHEMBL5143663 (Bioorg Med Chem Lett, 2022).

Molecular target: T1, Tyrosine-protein kinase JAK2 (Homo sapiens, UniProt O60674)
Test: Inhibition of human JAK2 kinase domain at 100 nM relative to control

T1 sequence (O60674 whole entry, the tested form may be a part): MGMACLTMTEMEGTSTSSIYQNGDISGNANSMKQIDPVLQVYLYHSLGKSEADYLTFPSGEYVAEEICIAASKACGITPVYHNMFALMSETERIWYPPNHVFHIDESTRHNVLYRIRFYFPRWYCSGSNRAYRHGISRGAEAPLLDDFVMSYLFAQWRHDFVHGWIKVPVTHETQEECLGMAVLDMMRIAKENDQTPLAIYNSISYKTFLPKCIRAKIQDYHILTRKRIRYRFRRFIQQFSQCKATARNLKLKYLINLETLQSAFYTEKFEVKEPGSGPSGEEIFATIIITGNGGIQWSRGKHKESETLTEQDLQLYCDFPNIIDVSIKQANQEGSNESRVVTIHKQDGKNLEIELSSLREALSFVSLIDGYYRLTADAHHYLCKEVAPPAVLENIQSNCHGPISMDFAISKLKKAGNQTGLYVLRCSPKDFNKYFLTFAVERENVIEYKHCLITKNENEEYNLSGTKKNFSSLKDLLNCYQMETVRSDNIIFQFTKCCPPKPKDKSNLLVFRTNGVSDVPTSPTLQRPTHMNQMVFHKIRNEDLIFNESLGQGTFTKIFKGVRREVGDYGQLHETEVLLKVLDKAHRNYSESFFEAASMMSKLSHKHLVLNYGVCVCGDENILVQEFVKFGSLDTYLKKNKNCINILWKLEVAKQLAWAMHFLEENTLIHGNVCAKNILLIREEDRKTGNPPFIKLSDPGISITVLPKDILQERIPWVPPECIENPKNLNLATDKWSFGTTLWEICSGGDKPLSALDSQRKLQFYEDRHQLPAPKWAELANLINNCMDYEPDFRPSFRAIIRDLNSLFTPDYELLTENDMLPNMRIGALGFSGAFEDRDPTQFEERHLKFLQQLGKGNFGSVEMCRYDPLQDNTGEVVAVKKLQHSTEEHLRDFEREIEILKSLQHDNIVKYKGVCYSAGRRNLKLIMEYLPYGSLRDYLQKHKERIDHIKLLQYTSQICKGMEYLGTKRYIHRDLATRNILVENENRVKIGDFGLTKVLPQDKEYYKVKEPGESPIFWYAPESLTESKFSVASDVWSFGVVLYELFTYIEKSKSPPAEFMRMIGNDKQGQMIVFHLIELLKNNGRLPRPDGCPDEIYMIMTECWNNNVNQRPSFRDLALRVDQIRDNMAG

**Q.** For `N#CCNC(=O)c1ccc(-c2ccnc(Nc3ccc(-n4cc5c(c4)OCCO5)cc3)n2)cc1`, which inhibition is on record?
**A.** The inhibition was 10%.

**Q.** For `N#CCNC(=O)c1ccc(-c2ccnc(Nc3ccc(N4CCC5(CCCO5)CC4)cc3)n2)cc1`, which inhibition is on record?
**A.** The inhibition was 67%.

**Q.** `N#CCNC(=O)c1ccc(-c2ccnc(Nc3ccc(N4CCC5(CCOC5)CC4)cc3)n2)cc1` was tested. Which inhibition did it give?
**A.** Its inhibition is 65%.

**Q.** How did the inhibition turn out when `N#CCNC(=O)c1ccc(-c2ccnc(Nc3ccc(N4CCC5(CC4)CS(=O)(=O)C5)cc3)n2)cc1` was run?
**A.** Its inhibition is 34%.

**Q.** Which inhibition does the source give for `N#CCNC(=O)c1ccc(-c2ccnc(Nc3ccc(-n4cncn4)cc3)n2)cc1` here?
**A.** Its inhibition is 55%.

**Q.** For `N#CCNC(=O)c1ccc(-c2ccnc(Nc3ccc(-n4cccn4)cc3)n2)cc1`, which inhibition is on record?
**A.** The inhibition was 61%.

**Q.** For `N#CCNC(=O)c1ccc(-c2ccnc(Nc3ccc(N4CCC5(CC4)COC(=O)C5)cc3)n2)cc1`, which inhibition is on record?
**A.** Its inhibition is 67%.

Molecular target: T2, Tyrosine-protein kinase JAK3 (Homo sapiens) (UniProt P52333)
T2 sequence (whole entry): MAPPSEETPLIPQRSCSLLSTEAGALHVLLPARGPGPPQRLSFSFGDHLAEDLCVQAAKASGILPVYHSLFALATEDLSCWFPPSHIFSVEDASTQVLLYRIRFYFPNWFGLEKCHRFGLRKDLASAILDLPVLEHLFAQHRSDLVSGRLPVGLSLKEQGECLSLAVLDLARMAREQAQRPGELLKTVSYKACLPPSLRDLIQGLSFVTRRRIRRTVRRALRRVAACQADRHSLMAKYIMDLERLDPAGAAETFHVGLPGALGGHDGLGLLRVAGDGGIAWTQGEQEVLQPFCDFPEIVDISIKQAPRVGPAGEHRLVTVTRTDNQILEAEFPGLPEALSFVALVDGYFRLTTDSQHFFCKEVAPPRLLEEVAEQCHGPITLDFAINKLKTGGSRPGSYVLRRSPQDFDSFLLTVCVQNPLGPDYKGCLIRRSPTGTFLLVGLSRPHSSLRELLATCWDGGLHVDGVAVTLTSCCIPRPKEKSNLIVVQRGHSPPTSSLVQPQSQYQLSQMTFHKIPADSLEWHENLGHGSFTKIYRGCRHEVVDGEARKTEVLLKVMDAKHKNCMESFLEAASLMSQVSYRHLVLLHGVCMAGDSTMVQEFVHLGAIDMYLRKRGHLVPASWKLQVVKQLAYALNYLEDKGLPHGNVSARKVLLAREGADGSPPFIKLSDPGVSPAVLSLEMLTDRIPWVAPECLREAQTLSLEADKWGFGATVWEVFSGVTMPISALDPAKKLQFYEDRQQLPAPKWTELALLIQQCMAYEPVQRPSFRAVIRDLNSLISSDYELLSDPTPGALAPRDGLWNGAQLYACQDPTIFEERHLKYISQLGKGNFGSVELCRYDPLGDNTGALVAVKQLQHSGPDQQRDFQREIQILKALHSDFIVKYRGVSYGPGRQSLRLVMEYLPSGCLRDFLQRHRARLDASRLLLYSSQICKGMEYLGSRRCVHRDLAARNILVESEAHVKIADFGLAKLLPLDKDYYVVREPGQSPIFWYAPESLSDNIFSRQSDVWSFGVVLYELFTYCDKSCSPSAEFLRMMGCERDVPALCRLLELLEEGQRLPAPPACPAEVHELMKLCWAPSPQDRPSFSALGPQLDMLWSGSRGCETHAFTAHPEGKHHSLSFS
Test: Inhibition of human JAK3 kinase domain at 100 nM relative to control

**Q.** With `N#CCNC(=O)c1ccc(-c2ccnc(Nc3ccc(N4CCC5(CCCO5)CC4)cc3)n2)cc1` as the compound, how does the inhibition read?
**A.** The inhibition was 14%.

**Q.** With `N#CCNC(=O)c1ccc(-c2ccnc(Nc3ccc(N4CCC5(CCOC5)CC4)cc3)n2)cc1` as the compound, how does the inhibition read?
**A.** The inhibition was 20%.

**Q.** For `N#CCNC(=O)c1ccc(-c2ccnc(Nc3ccc(N4CCC5(CC4)CS(=O)(=O)C5)cc3)n2)cc1`, which inhibition is on record?
**A.** Its inhibition is 19%.

**Q.** For `N#CCNC(=O)c1ccc(-c2ccnc(Nc3ccc(-n4cncn4)cc3)n2)cc1`, which inhibition is on record?
**A.** Its inhibition is 12%.

Molecular target: Tyrosine-protein kinase JAK1 (Homo sapiens, UniProt P23458)
Sequence (P23458 whole entry, the tested form may be a part): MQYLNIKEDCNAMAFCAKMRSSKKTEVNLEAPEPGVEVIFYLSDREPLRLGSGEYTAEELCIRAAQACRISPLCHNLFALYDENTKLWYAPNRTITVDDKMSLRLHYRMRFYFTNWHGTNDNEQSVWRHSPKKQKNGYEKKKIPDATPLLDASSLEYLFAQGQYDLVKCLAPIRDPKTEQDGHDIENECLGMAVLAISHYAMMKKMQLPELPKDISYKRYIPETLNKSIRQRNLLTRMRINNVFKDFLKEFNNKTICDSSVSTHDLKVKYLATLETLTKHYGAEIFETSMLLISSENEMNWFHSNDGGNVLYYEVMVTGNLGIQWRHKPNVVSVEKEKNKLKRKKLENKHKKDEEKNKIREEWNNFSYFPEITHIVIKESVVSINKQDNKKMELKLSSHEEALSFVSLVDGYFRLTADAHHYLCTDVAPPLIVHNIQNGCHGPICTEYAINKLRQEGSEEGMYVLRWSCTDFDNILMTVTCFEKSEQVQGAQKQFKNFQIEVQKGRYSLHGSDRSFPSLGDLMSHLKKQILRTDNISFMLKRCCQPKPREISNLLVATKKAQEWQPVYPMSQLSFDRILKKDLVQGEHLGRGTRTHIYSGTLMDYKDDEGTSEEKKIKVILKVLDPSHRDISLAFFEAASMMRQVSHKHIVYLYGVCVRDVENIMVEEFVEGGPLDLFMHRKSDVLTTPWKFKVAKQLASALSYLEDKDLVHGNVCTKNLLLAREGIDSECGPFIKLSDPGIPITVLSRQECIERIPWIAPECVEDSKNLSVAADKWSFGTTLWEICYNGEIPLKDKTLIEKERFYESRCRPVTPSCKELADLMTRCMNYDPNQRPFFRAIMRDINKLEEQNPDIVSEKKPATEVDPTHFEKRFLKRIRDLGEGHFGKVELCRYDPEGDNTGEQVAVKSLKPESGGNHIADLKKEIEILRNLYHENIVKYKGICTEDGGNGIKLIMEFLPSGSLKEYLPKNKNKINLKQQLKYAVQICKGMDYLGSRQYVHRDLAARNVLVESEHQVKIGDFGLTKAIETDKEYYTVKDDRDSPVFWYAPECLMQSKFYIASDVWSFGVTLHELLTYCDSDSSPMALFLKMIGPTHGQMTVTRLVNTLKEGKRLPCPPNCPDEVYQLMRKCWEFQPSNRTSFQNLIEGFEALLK
Test: Inhibition of human JAK1 kinase domain at 100 nM relative to control

**Q.** How did the inhibition turn out when `N#CCNC(=O)c1ccc(-c2ccnc(Nc3ccc(-n4cc5c(c4)OCCO5)cc3)n2)cc1` was run?
**A.** Its inhibition is 25%.

Molecular target: T1, Tyrosine-protein kinase JAK2
Test: Inhibition of human JAK2 kinase domain at 10 nM relative to control

**Q.** How did the inhibition turn out when `N#CCNC(=O)c1ccc(-c2ccnc(Nc3ccc(N4CCC5(CCCO5)CC4)cc3)n2)cc1` was run?
**A.** Its inhibition is 14%.

**Q.** For `N#CCNC(=O)c1ccc(-c2ccnc(Nc3ccc(N4CCC5(CCOC5)CC4)cc3)n2)cc1`, which inhibition is on record?
**A.** The inhibition was 20%.

**Q.** `N#CCNC(=O)c1ccc(-c2ccnc(Nc3ccc(-n4cccn4)cc3)n2)cc1` was tested. Which inhibition did it give?
**A.** Its inhibition is 13%.

**Q.** With `N#CCNC(=O)c1ccc(-c2ccnc(Nc3ccc(N4CCC5(CC4)COC(=O)C5)cc3)n2)cc1` as the compound, how does the inhibition read?
**A.** Its inhibition is 24%.
